These results are taken from patent US20250206754A1, “PAN-CHEMOKINE ANTAGONISTS FOR USE IN TREATING CANCER AND IMMUNE DISORDERS” ("Micar Innovation" LTD., priority 2022, published 2025).

Values joined by “and” are separate entries in the source; they are usually repeats but may differ in a detail not shown here. Equal entries are not always repeated. Where two headings read alike, the source gives them in different places.

The target of one assay is CCR5 (Homo sapiens, UniProt P51681). In words: β-arrestin selectivity assay, CCR5. Type of assay: cell-based.
Sequence of CCR5 (P51681 whole entry): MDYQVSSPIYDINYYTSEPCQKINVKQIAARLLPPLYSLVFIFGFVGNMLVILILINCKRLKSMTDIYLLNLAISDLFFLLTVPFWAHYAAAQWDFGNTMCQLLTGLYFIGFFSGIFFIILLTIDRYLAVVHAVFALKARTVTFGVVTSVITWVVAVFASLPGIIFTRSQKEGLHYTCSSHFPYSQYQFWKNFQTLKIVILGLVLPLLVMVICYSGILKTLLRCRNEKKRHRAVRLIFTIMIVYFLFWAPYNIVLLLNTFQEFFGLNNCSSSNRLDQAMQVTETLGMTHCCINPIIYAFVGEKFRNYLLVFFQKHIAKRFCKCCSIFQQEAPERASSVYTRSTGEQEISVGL
The target in a further assay is T1, CCR3 (Homo sapiens, UniProt P51677).
T1 sequence (P51677 1-355): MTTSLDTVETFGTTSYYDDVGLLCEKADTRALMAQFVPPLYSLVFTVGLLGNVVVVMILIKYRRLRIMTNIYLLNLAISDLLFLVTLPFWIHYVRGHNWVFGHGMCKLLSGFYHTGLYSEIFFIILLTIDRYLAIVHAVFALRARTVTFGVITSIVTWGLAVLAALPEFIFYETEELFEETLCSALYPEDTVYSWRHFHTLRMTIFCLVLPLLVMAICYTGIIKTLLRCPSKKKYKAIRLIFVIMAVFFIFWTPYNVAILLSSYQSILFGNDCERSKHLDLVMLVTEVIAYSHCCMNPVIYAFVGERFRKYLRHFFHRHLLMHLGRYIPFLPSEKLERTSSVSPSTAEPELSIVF
In words: β-arrestin selectivity assay, CCR3. Format: cell-based.

The target of assay [1] is T2, CCR7 (Homo sapiens, UniProt P32248).
T2 construct: expressed in transfected cells
T2 sequence (P32248 25-378): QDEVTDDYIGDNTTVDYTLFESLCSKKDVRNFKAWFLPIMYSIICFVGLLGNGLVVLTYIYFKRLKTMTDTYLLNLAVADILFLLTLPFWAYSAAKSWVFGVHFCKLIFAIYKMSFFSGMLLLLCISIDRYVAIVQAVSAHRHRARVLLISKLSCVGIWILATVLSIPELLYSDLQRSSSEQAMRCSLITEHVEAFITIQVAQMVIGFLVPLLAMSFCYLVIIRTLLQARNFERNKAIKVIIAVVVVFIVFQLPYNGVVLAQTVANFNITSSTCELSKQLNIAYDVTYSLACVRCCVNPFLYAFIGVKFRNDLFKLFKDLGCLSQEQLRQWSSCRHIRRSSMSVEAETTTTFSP
As to the kind of experiment: Ca^2+ mobilization assay, CCR7. Type of assay: cell-based. To be noted: Ca^2+ mobilization assay, CCR7. The method, then: Selected compounds were initially sent for both antagonist and agonist TANGO β-arrestin assays. […] Replacement only on the amide group with CN led to strong activity decrease in β-arrestin assay: only 31% activity at about 30 μM and similar one at 100 μM (Table 1). Five more derivatives with replaced amide group were also tested in parallel by Ca^2+ mobilization assay and they all were not active up to the tested concertation of 100 μM.
To examine the colloid aggregation possibility a β-lactamase enzymatic activity counterscreen assay was performed, which is the commonly adopted tool for detection of such properties of the compounds.

The target of a further assay is T3, CCR1 (Homo sapiens, UniProt P32246).
T3 sequence (P32246 1-355): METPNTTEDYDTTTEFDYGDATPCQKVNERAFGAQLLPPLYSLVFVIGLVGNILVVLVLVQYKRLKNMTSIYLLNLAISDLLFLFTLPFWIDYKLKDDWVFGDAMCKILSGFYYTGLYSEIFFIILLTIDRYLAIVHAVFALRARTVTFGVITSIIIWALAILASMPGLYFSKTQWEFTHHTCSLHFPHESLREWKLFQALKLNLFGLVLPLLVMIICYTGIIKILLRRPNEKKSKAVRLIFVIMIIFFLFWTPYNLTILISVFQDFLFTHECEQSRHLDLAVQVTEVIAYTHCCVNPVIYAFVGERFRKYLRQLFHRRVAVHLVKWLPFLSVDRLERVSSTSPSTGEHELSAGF
In words: β-arrestin selectivity assay, CCR1. Type of assay: cell-based.

The next assay deals with CCR2 (Homo sapiens, UniProt P41597). In words: β-arrestin selectivity assay, CCR2. Type of assay: cell-based.
Sequence of CCR2 (P41597 whole entry): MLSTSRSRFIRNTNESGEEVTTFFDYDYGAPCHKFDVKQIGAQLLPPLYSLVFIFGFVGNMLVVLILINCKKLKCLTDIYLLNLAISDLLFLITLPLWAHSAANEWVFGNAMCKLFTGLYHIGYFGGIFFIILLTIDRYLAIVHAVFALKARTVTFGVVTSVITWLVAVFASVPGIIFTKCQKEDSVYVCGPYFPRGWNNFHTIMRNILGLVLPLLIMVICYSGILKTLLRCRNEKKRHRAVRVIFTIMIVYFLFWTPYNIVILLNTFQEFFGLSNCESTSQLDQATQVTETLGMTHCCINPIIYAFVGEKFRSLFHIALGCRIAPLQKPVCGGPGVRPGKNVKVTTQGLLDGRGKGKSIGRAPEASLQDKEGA
The target in the next assay is CXCR4 (Homo sapiens, UniProt P61073). In words: Ca^2+ mobilization assay, CXCR4. Type of assay: cell-based. The method, then:
MIC5023. The synthesis path of MIC5023 is shown on Scheme 1. It consists of 5 chemical transformation in order the final product to be obtained. Two chlorine atoms were added to aromatic rings of MIC5022, and also one methyl group, which makes MIC5023 a close derivative of MIC5022. […] The Ca^2+ mobilization assays retrieved a value of IC50 of about 30 μM and similar for CXCR4; i.e. less than those observed for Hit 1 (MIC5022). MIC5024. The synthesis path of MIC5024 is shown on Scheme 2. It consists of 4 chemical transformation in order the final product to be obtained. The difference between MIC5023 and MIC5024 is only one methyl group introduced in the central five member aromatic ring but it decreased the β-arrestin activity of MIC5024 to CCR1, CCR2 and CCR3 below 30 μM. […] The Ca^2+ mobilization assays retrieved values of IC50>50 μM for CCR7 and CXCR4. Thus, it became evident that this methyl substitution is less sensitive only to CCR3 and CCR5.

The target of assay [2] is T2, CCR7. To be noted: β-arrestin related assay, CCR7, reference [2]; cited from earlier work.

Sequence of CXCR4 (P61073 whole entry): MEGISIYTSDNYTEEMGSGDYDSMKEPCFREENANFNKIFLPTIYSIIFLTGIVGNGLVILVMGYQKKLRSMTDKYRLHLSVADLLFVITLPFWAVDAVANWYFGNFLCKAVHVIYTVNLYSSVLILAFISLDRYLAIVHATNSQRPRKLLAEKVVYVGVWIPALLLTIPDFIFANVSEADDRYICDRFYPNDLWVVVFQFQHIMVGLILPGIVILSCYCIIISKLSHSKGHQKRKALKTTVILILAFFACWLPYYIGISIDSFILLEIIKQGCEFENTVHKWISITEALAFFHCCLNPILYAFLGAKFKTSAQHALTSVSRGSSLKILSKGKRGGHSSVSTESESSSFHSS

For the compound `Cc1nc(Oc2c(Cl)cccc2C(N)=O)c2cc(-c3ccccc3Cl)sc2n1` [MIC5024, 3-chloro-2-{[6-(2-chlorophenyl)-2-methylthieno[2,3-d]pyrimidin-4-yl]oxy}benzamide], the IC50 against CCR5 is 7.2 µM; on CCR3, < 30 µM and 7.2 µM; against CCR7 [1], more than 50 µM; against CCR1, less than 30 µM; against CCR2, less than 30 µM; against CXCR4, more than 50 µM.
Take Cosaline: the IC50 at CCR7 [2] is 0.2 µM.
As to `Cc1nc(Oc2c(Cl)cccc2C(N)=O)c2c(C)c(-c3ccccc3Cl)sc2n1` [MIC5023, 3-chloro-2-{[6-(2-chlorophenyl)-2,5-dimethylthieno[2,3-d]pyrimidin-4-yl]oxy}benzamide], the IC50 was 2.1 µM at CCR5; more than 9.5 µM on CCR3; approximately 30 µM against CCR7 [1]; more than 30 µM against CCR1; 31.5 µM against CCR2; approximately 30 µM at CXCR4.
